# How the values were obtained:
# [1] = tested on: glial fibrillary acidic protein (GFAP); assay: GFAP labeling (scarring marker) in spinal cord sections after contusion injury; format: in vivo; conditions: rats with spinal cord contusion, compared with saline
# Text: FIG. 6A and FIG. 6B are images illustrating a section of spinal cords of placebo (saline) (FIG. 6A) and 4-AP (FIG. 6B) treated animals labeled with antibody against glial fibrillary acidic protein (GFAP), which is a marker of scarring in all regions of the central nervous system, (bright spots in FIG. 6A) and DAPI (bright spots in FIG. 6B). indicates the lesion edge. The size bar represents 100 μm. […] These outcomes provide further evidence that 4-AP administration is regulating a response to traumatic injury that is of relevance to traumatic injury in all tissues.
# FIGS. 6A-6B further examines expression of a protein called glial fibrillary acidic protein (GFAP), which is one of the markers of scarring in all regions of the central nervous system. […] These outcomes provide further evidence that 4-AP administration is regulating a response to traumatic injury that is of relevance to traumatic injury in all tissues.
# [2] = tested on: skeletal muscle atrophy; assay: Skeletal muscle atrophy after sciatic nerve crush injury; format: in vivo, mouse
# Text: FIGS. 10A-10F show the rescue of skeletal muscle from atrophy induced by crush injury to the sciatic nerve by daily administration of clinically relevant dosages of 4-AP.
# These stem cells are believed to play roles in preventing and/or repairing muscle atrophy.
# In particular, 4-AP was applied as a means of preventing skeletal muscle atrophy following damage to the nerve innervating muscles of limb, as illustrated in FIG. 10. In these experiments, the sciatic nerve of the mouse was crushed in such a manner that not all axons were severed. In these injuries, skeletal muscle atrophy is a significant consequence, just as it is in patients with similar injuries. This type of injury can be a problem for many reasons, including the fact that if atrophy is not stopped or reversed within a relatively short period of time, the damage done may become irreversible.
# [3] = tested on: sciatic nerve crush; assay: Electron microscopy of sciatic nerve after crush injury with local 4-AP PLGA films; format: in vivo
# Text: A comparison of the axonal area of randomly chosen individual axons of vehicle treated and 4-AP treated mice (n=4 for each experimental group; 40 axons analyzed per mouse) is shown. […] (**: p<0.01; ANOVA).
# In the experiment below, mice received crush injuries to the sciatic nerve and then a sustained release formulation of 4-AP in a PLGA formulation (4-AP films) was applied locally at the site of injury. At the time that nerve conduction velocity began to recover, nerves were isolated and studied by electron microscopy. […] In uninjured myelinated axons, the average area of a myelinated axon (excluding the myelin) was 11.2+/−1.3 μm^2. In injured nerves treated with PLGA film only, the average area of myelinated axons decreased to 5.7+/−0.2 μm^2 (FIG. 9A). In nerves treated with 4-AP-containing films, the average area of myelinated axons was 6.7+/−0.4 μm^2 (p<0.05 versus mice treated only with film). In addition, the proportion of axons with areas above the average value for uninjured nerves was 5+/−3% in injured nerves treated with vehicle alone but increased to 15+/−2% in nerves treated with 4-AP containing films (p<0.05).
# On day 21 after injury, the average thickness of the myelin within the injured area was 0.53+/−0.03 μm but was 0.95+/−0.14 μm with localized 4-AP administration (p<0.01), as compared with an average myelin thickness in uninjured nerves of 1.26+/−0.08 μm. […] The myelin area was also measured (FIG. 9C, D) and it was determined that the average cross-sectional area of myelin per myelinated large axon in uninjured nerve was 14.8+/−1.7 μm^2, 4.9+/−0.3 μm^2 in injured nerve, and was restored to 10.1+/−0.7 μm^2 with localized 4-AP administration (p<0.01). In 4-AP treated mice, 21.2+/−9.3% of axons had myelin areas that were above the average for uninjured nerve, while this value in vehicle-treated mice was only 1.9+/−1.4%.
# The benefits of treatment were also observed by analysis of the ratio of the area of the axon to the area of the axon plus associated myelin. This g^area ratio, a variant of the usually employed g-ratio, was calculated due to the decreased circularity in injured nerve. […] However, with local 4-AP treatment, the g^area-ratio was in the normal range of 0.43+/−0.09 (p<0.01) (FIG. 9D).
# The number of total myelinated axons per TEM grid examined (2310 μm^2) was 82+/−5 axons in undamaged nerve, as compared with 55+/−4 axons in injured vehicle-treated mice and 71+/−4 axons in 4-AP treated mice (p<0.01 for vehicle-treated vs. 4-AP treated mice).
# [4] = tested on: skeletal muscle atrophy; assay: Skeletal muscle atrophy after complete denervation (nerve transection); format: in vivo
# Description: Treatment with 4AP decreased muscle expression of MuRF-1 (FIG. 11A) and myogenin (FIG. 11B) (both normalized to GADPH) after complete denervation. […] Thus, the beneficial effects of 4AP on parameters of atrophy were not dependent on restoration of normal motor usage. *=p<0.05; ** p<0.01.
# In this example, the nerve innovating the extensor digitorum longus muscle was completely transected 15-25 mm distant from the muscle. 4-AP was then administered during the acute and subacute post-injury periods.
# [5] = tested on: contusion injury to the spinal cord; assay: Lesion volume 3 days after spinal cord contusion injury; format: in vivo; conditions: rats with spinal cord contusion, sacrificed 3 days after injury
# Description: FIG. 7 is a graph showing the unexpected ability of 4-AP to modulate outcomes of traumatic injury that are of relevance to the injury in all tissues of the body is the ability to decrease lesion size. In these experiments, rats received identical injuries as discussed in Example 1, except that these rats were sacrificed 3 days after injury. Lesion size, in cubic millimeters (mm^3) was calculated by imaging collected tissue sections covering the full dimensions of the injury using Stereolnvestigator and contours were traced to cover the region of the tissue in which damage was apparent. All slides were measured by a blinded individual. Lesion volume was thus determined. […]
# Still another example of the unexpected ability of 4-AP to modulate outcomes of traumatic injury that are of relevance to such injury in all tissues of the body is the ability to decrease lesion size. […] Lesion size, in cubic millimeters (mm^3) was calculated by imaging collected tissue sections covering the full dimensions of the injury using Stereolnvestigator and contours were traced to cover the region of the tissue in which damage was apparent. All slides were measured by a blinded individual. Lesion volume was thus determined.
# [6] = mouse, sciatic nerve crush injury
# [7] = mice, localized 4-AP (PLGA films)
# [8] = after complete denervation, daily 4-AP
smiles,measurement,setting,value
"Nc1ccncc1 [4-AP, 4-aminopyridine]","GFAP, marker of central nervous system scarring",[1],greatly decreased
same,numbers of Pax7+ muscle stem cells,[2]; both at 7 days and 14 days post nerve crush injury,increased the numbers of Pax7+ cells
same,muscle strength,"[2]; mice, 7 days after nerve crush injury, daily 4-AP",greater muscle strength as compared with saline-treated mice
same,expression of MuRF-1 in muscle,[2]; [6],decreases expression of MuRF-1
same,expression of myogenin in muscle,[2]; [6],decreases expression of myogenin
same,muscle atrophy judged by cross-sectional size of muscle,"[2]; mouse, sciatic nerve crush injury, daily 4-AP",decreases muscle atrophy
same,myelinated axons with a g^area-ratio less than the average for uninjured mice,[3]; 21 days after injury,54.4+/−18.5%
same,average g^area-ratio (area of the axon to area of the axon plus associated myelin),"[3]; mice, 21 days after injury, local 4-AP treatment",0.43+/−0.09
same,number of total myelinated axons per TEM grid examined (2310 μm^2),"[3]; mice, 21 days post injury",71+/−4 axons
same,axons with myelin thickness above the average for uninjured nerve,"[3]; mice, day 21, localized 4-AP (PLGA films)",21.4+/−10.8%
same,average thickness of the myelin within the injured area,"[3]; mice, day 21 after injury, localized 4-AP (PLGA films)",0.95+/−0.14 μm
same,average cross-sectional area of myelin per myelinated large axon,[3]; [7],10.1+/−0.7 μm^2
same,axons with myelin areas above the average for uninjured nerve,[3]; [7],21.2+/−9.3%
same,muscle expression of MuRF-1 (normalized to GADPH),[4]; [8],decreased
same,muscle expression of myogenin (normalized to GADPH),[4]; [8],decreased
same,recovery of gait function,[4]; denervated animals,did not show any recovery of gait function
same,lesion size (lesion volume),[5],greatly decreasing lesion size

# Reference: US20180271847A1, “TREATMENT OF ACUTE TRAUMATIC INJURY” (priority 2015, published 2018)
